From patent US20070128217A1 (priority 2003, published 2007)

How the values were obtained:
[1] = system: control sera (pooled serum of ten healthy LUMC hospital workers; commercial negative donor pooled serum from the Dutch bloodbank); assay type: binding, human; design: Binding of Control serum LUMC to linear peptides / Binding of Control serum Blood-bank to linear peptides / Binding of Control serum LUMC to looped peptides / Binding of Control Serum Blood-Bank to Looped peptides / Binding of Control serum LUMC to linear peptides of the protein M of SARS-CoV Urbani / Binding of Control serum Blood-bank to linear peptides of the protein M of SARS-CoV Urbani / Binding of Control serum LUMC to looped peptides of the protein M of SARS-CoV Urbani / Binding of Control Serum Blood-Bank to Looped peptides of the protein M of SARS-CoV Urbani: unit not given here
[2] = system: antibodies in sera from SARS patients (sera 1a, 1b, 2, 6, 37, 62, London, SARS-yellow, SARS-green); assay type: binding, human; design: Binding of serum 6 to linear peptides of protein X1 of SARS-CoV Urbani / Binding of serum 37 to linear peptides of protein X1 of SARS-CoV Urbani / Binding of serum 6 to looped/cyclic peptide (PEPSCAN-ELISA) / Binding of serum 37 to looped/cyclic peptide (PEPSCAN-ELISA) / Binding of serum 37 to looped/cyclic peptides of protein X1 of SARS-CoV Urbani / Binding of serum 6 to linear peptides of protein X2 / Binding of serum 37 to linear peptides of protein X2 / Binding of serum 37 to looped/cyclic peptides of protein X2 of SARS-CoV Urbani / Binding of serum 6 to linear peptides of protein M of SARS-CoV Urbani / Binding of serum 37 to linear peptides of protein M of SARS-CoV Urbani / Binding of serum 6 to looped/cyclic peptides of protein M of SARS-CoV Urbani / Binding of serum 37 to looped/cyclic peptides of protein M of SARS-CoV Urbani / Binding of serum 6 to linear peptides of protein X3 of SARS-CoV Urbani / Binding of serum 37 to linear peptides of protein X3 of SARS-CoV Urbani / Binding of serum 37 to looped/cyclic peptides of protein X3 of SARS-CoV Urbani / Binding of serum 6 to linear peptides of protein X4 of SARS-CoV Urbani / Binding of serum 37 to linear peptides of protein X4 of SARS-CoV Urbani / Binding of serum 37 to looped/cyclic peptides of protein X4 of SARS-CoV Urbani / Binding of serum 6 to linear peptides of protein X5 of SARS-CoV Urbani / Binding of serum 37 to linear peptides of protein X5 of SARS-CoV Urbani / Binding of serum 37 to looped/cyclic peptides of protein X5 of SARS-CoV Urbani / Binding of serum 6 to linear peptides of protein N of SARS-CoV Urbani / Binding of serum 37 to linear peptides of protein N of SARS-CoV Urbani / Binding of serum 6 to linear peptide (PEPSCAN-ELISA) / Binding of serum 1a to looped/cyclic peptides of protein N of SARS-CoV Urbani / Binding of serum 1b to looped/cyclic peptides of protein N of SARS-CoV Urbani / Binding of serum 2 to looped/cyclic peptides of protein N of SARS-CoV Urbani / Binding of serum 6 to looped/cyclic peptides of protein N of SARS-CoV Urbani / Binding of serum 37 to looped/cyclic peptides of protein N of SARS-CoV Urbani / Binding of serum 62 to looped/cyclic peptides of protein N of SARS-CoV Urbani / Binding of serum London to looped/cyclic peptides of protein N of SARS-CoV Urbani / Binding of serum SARS-green to looped/cyclic peptides of protein N of SARS-CoV Urbani: unit not given here
[3] = system: rabbit serum obtained by immunizing a rabbit with the SARS-CoV strain Frankfurt 1; assay type: binding; design: Binding of a rabbit serum to linear peptides / Binding of a rabbit serum to looped peptides / Rabbit serum linear peptides / Rabbit serum looped peptides / Binding of a rabbit serum to linear peptides of protein N of SARS-CoV Urbani (Rabbit serum linear peptides) / Binding of a rabbit serum to looped/cyclic peptides of protein N of SARS-CoV Urbani (Rabbit serum looped peptides): unit not given here

WKCKSKNPLLYDANY
Binding of Control Serum Blood-Bank to Looped peptides [1]: 0.6
Binding of Control serum Blood-bank to linear peptides [1]: 0.7
Binding of Control serum LUMC to linear peptides [1]: 0.8
Binding of Control serum LUMC to looped peptides [1]: 0.5
Binding of serum 1a to linear peptides of protein X1 of SARS-CoV Urbani [2]: 0.8
Binding of serum 1a to looped/cyclic peptide (PEPSCAN-ELISA) [2]: 0.6
Binding of serum 1b to linear peptides of protein X1 of SARS-CoV Urbani [2]: 0.8
Binding of serum 1b to looped/cyclic peptide (PEPSCAN-ELISA) [2]: 0.5
Binding of serum 2 to linear peptides of protein X1 of SARS-CoV Urbani [2]: 0.6
Binding of serum 2 to looped/cyclic peptide (PEPSCAN-ELISA) [2]: 0.4
Binding of serum 6 to linear peptides of protein X1 of SARS-CoV Urbani [2]: 0.7
Binding of serum 6 to looped/cyclic peptide (PEPSCAN-ELISA) [2]: 0.3
Binding of serum 37 to linear peptides of protein X1 of SARS-CoV Urbani [2]: 0.8
Binding of serum 37 to looped/cyclic peptide (PEPSCAN-ELISA) [2]: 0.6
Binding of serum 62 to linear peptides of protein X1 of SARS-CoV Urbani [2]: 0.7
Binding of serum 62 to looped/cyclic peptide (PEPSCAN-ELISA) [2]: 0.6
Binding of serum London to linear peptides of protein X1 of SARS-CoV Urbani [2]: 0.3
Binding of serum London to looped/cyclic peptide (PEPSCAN-ELISA) [2]: 0.2
Binding of serum SARS-green to linear peptides of protein X1 of SARS-CoV Urbani [2]: 0.4
Binding of serum SARS-green to looped/cyclic peptide (PEPSCAN-ELISA) [2]: 0.3
Binding of serum SARS-yellow to linear peptides of protein X1 of SARS-CoV Urbani [2]: 0.5
Binding of serum SARS-yellow to looped/cyclic peptide (PEPSCAN-ELISA) [2]: 0.5
Binding of a rabbit serum to linear peptides [3]: 0.1
Binding of a rabbit serum to looped peptides [3]: 0.6

WLCALGKVLPFHRWH
Binding of Control Serum Blood-Bank to Looped peptides [1]: 0.4
Binding of Control serum Blood-bank to linear peptides [1]: 0.9
Binding of Control serum LUMC to linear peptides [1]: 0.6
Binding of Control serum LUMC to looped peptides [1]: 0.6
Binding of serum 1a to linear peptides of protein X5 of SARS-CoV Urbani [2]: 0.7
Binding of serum 1a to looped/cyclic peptides of protein X5 of SARS-CoV Urbani [2]: 0.5
Binding of serum 1b to linear peptides of protein X5 of SARS-CoV Urbani [2]: 0.6
Binding of serum 1b to looped/cyclic peptides of protein X5 of SARS-CoV Urbani [2]: 0.4
Binding of serum 2 to linear peptides of protein X5 of SARS-CoV Urbani [2]: 0.7
Binding of serum 2 to looped/cyclic peptides of protein X5 of SARS-CoV Urbani [2]: 0.6
Binding of serum 6 to linear peptides of protein X5 of SARS-CoV Urbani [2]: 0.8
Binding of serum 6 to looped/cyclic peptides of protein X5 of SARS-CoV Urbani [2]: 0.7
Binding of serum 37 to linear peptides of protein X5 of SARS-CoV Urbani [2]: 0.7
Binding of serum 37 to looped/cyclic peptides of protein X5 of SARS-CoV Urbani [2]: 0.5
Binding of serum 62 to linear peptides of protein X5 of SARS-CoV Urbani [2]: 0.8
Binding of serum 62 to looped/cyclic peptides of protein X5 of SARS-CoV Urbani [2]: 0.7
Binding of serum London to linear peptides of protein X5 of SARS-CoV Urbani [2]: 0.8
Binding of serum London to looped/cyclic peptides of protein X5 of SARS-CoV Urbani [2]: 0.5
Binding of serum SARS-green to linear peptides of protein X5 of SARS-CoV Urbani [2]: 0.6
Binding of serum SARS-green to looped/cyclic peptides of protein X5 of SARS-CoV Urbani [2]: 0.5
Binding of serum SARS-yellow to linear peptides of protein X5 of SARS-CoV Urbani [2]: 0.2
Binding of serum SARS-yellow to looped/cyclic peptides of protein X5 of SARS-CoV Urbani [2]: 0.6
Rabbit serum linear peptides [3]: 0.6
Rabbit serum looped peptides [3]: 0.8

WLCWKCKSKNPLLYD
Binding of Control Serum Blood-Bank to Looped peptides [1]: 0.7
Binding of Control serum Blood-bank to linear peptides [1]: 0.6
Binding of Control serum LUMC to linear peptides [1]: 0.7
Binding of Control serum LUMC to looped peptides [1]: 0.8
Binding of serum 1a to looped/cyclic peptide (PEPSCAN-ELISA) [2]: 0.8
Binding of serum 1b to looped/cyclic peptide (PEPSCAN-ELISA) [2]: 0.6
Binding of serum 2 to looped/cyclic peptide (PEPSCAN-ELISA) [2]: 0.6
Binding of serum 6 to looped/cyclic peptide (PEPSCAN-ELISA) [2]: 0.6
Binding of serum 37 to looped/cyclic peptide (PEPSCAN-ELISA) [2]: 0.9
Binding of serum 62 to looped/cyclic peptide (PEPSCAN-ELISA) [2]: 0.7
Binding of serum London to looped/cyclic peptide (PEPSCAN-ELISA) [2]: 0.3
Binding of serum SARS-green to looped/cyclic peptide (PEPSCAN-ELISA) [2]: 0.4
Binding of serum SARS-yellow to looped/cyclic peptide (PEPSCAN-ELISA) [2]: 0.6
Recognition of the peptide by sera of SARS-CoV infected individuals, and form (linear, looped/cyclic) in which it is recognized [2]: recognized in linear form
Binding of a rabbit serum to linear peptides [3]: 0.2
Binding of a rabbit serum to looped peptides [3]: 0.6

WLLWPVTLACFVLAA
Binding of Control Serum Blood-Bank to Looped peptides of the protein M of SARS-CoV Urbani [1]: 0.5
Binding of Control serum Blood-bank to linear peptides of the protein M of SARS-CoV Urbani [1]: 0.4
Binding of Control serum LUMC to linear peptides of the protein M of SARS-CoV Urbani [1]: 0.2
Binding of Control serum LUMC to looped peptides of the protein M of SARS-CoV Urbani [1]: 0.6
Binding of serum 1a to linear peptides of protein M of SARS-CoV Urbani [2]: 0.6
Binding of serum 1a to looped/cyclic peptides of protein M of SARS-CoV Urbani [2]: 0.7
Binding of serum 1b to linear peptides of protein M of SARS-CoV Urbani [2]: 0.5
Binding of serum 1b to looped/cyclic peptides of protein M of SARS-CoV Urbani [2]: 0.3
Binding of serum 2 to linear peptides of protein M of SARS-CoV Urbani [2]: 0.5
Binding of serum 2 to looped/cyclic peptides of protein M of SARS-CoV Urbani [2]: 0.7
Binding of serum 6 to linear peptides of protein M of SARS-CoV Urbani [2]: 0.4
Binding of serum 6 to looped/cyclic peptides of protein M of SARS-CoV Urbani [2]: 0.5
Binding of serum 37 to linear peptides of protein M of SARS-CoV Urbani [2]: 0.6
Binding of serum 37 to looped/cyclic peptides of protein M of SARS-CoV Urbani [2]: 0.7
Binding of serum 62 to linear peptides of protein M of SARS-CoV Urbani [2]: 0.6
Binding of serum 62 to looped/cyclic peptides of protein M of SARS-CoV Urbani [2]: 0.7
Binding of serum London to linear peptides of protein M of SARS-CoV Urbani [2]: 0.3
Binding of serum London to looped/cyclic peptides of protein M of SARS-CoV Urbani [2]: 0.2
Binding of serum SARS-green to linear peptides of protein M of SARS-CoV Urbani [2]: 0.3
Binding of serum SARS-green to looped/cyclic peptides of protein M of SARS-CoV Urbani [2]: 0.3
Binding of serum SARS-yellow to linear peptides of protein M of SARS-CoV Urbani [2]: 0.0
Binding of serum SARS-yellow to looped/cyclic peptides of protein M of SARS-CoV Urbani [2]: 0.7
Rabbit serum linear peptides [3]: 0.3
Rabbit serum looped peptides [3]: 0.3

WLSYFVASFRLFART
Binding of Control Serum Blood-Bank to Looped peptides of the protein M of SARS-CoV Urbani [1]: 0.6
Binding of Control serum Blood-bank to linear peptides of the protein M of SARS-CoV Urbani [1]: 0.7
Binding of Control serum LUMC to linear peptides of the protein M of SARS-CoV Urbani [1]: 0.6
Binding of Control serum LUMC to looped peptides of the protein M of SARS-CoV Urbani [1]: 0.8
Binding of serum 1a to linear peptides of protein M of SARS-CoV Urbani [2]: 0.6
Binding of serum 1b to linear peptides of protein M of SARS-CoV Urbani [2]: 0.5
Binding of serum 2 to linear peptides of protein M of SARS-CoV Urbani [2]: 0.4
Binding of serum 6 to linear peptides of protein M of SARS-CoV Urbani [2]: 0.4
Binding of serum 37 to linear peptides of protein M of SARS-CoV Urbani [2]: 0.4
Binding of serum 62 to linear peptides of protein M of SARS-CoV Urbani [2]: 0.4
Binding of serum London to linear peptides of protein M of SARS-CoV Urbani [2]: 0.3
Binding of serum SARS-green to linear peptides of protein M of SARS-CoV Urbani [2]: 0.4
Binding of serum SARS-yellow to linear peptides of protein M of SARS-CoV Urbani [2]: 0.1
Recognition of the peptide by sera of SARS-CoV infected individuals, and form (linear, looped/cyclic) in which it is recognized [2]: recognized in looped/cyclic form
Rabbit serum linear peptides [3]: 0.2
Rabbit serum looped peptides [3]: 0.4
